# Measurements: patent US20040266732A1, “Therapeutic agents, methods, and treatments” (priority 2002, published 2004)
# Assays:
# [1] = test system: MCF7 Cell line (Breast Cancer); test: NCI three cell-line test; format: cell-based, human; details: 1(10^−4) Molar in growth medium, percent of growth of untreated control cells
# Experimental: (§1) The testing in this Example was performed by NCI, as per their 3-cell line panel test. The results are reported as the percent of the growth of the treated cells compared to the untreated control cells. The criterion for being an effective compound and for being subjected to further testing is that the tested compound reduce the growth of any one of the three cell lines to approximately 32% or less.
# (§2) The methods for conducting the test are described below in Example 3, except that the cells were exposed to a single concentration of MT103, at 1×10^−4 Molar, and colorimetric determinations were made with alamar blue (Biotechniques 21(5):780-782 (1996)).
# (§3) Methodology: The NCI conducted a test of the MT103 drug against 60 human cell lines, with a minimum of five concentrations of MT103 at 10-fold dilutions. A 48 hour continuous drug exposure was used, and a sulforhodamine B (SRB) protein assay was used to estimate cell viability and growth. The human tumor cell lines of the cancer screening panel were grown in RPMI 1640 medium containing 5% fetal bovine serum and 2 mM L-glutamine. Cells were inoculated into 96 well microtiter plates in 100 μL at plating densities ranging from 5,000 to 40,000 cells/well depending on the doubling time of individual cell lines. After cell inoculation, the microtiter plates are incubated at 37° C., 5% CO2, 95% air, and 100% relative humidity for 24 h prior to addition of experimental drugs. […]
# (§4) Following drug addition, the plates were incubated for an additional 48 h at 37° C., 5% CO2, 95% air, and 100% relative humidity. […] Bound stain was subsequently solubilized with 10 mM trizma base, and the absorbance was read on an automated plate reader at a wavelength of 515 nm. […] Using the seven absorbance measurements (time zero, (Tz), control growth, (C), and test growth in the presence of drug at the five concentration levels (Ti)), the percentage growth was calculated at each of the drug concentrations levels. Percentage growth inhibition was calculated as: […]
# [2] = test system: NCI-H460 Cell Line (Non-Small cell Lung); test: NCI three cell-line test; format: cell-based, human; details: 1(10^−4) Molar in growth medium, percent of growth of untreated control cells
# Experimental: as §1, §2, §3, §4
# [3] = test system: SF-268 Cell Line (Central Nervous System); test: NCI three cell-line test; format: cell-based, human; details: 1(10^−4) Molar in growth medium, percent of growth of untreated control cells
# Experimental: as §1, §2, §3, §4
# MCF7, NCI-H460, SF-268 = test: NCI three cell-line test, all three cell lines; format: cell-based, human; details: one concentration tested (1×10^−4 Molar)
# Experimental: as §1, §2
# Methodology: The NCI conducted a test of the MT103 drug against 60 human cell lines, with a minimum of five concentrations of MT103 at 10-fold dilutions. […]
# as §4
# [4] = test system: NCI-H226 human non-small cell lung cancer cell line; test: MTS assay; format: cell-based
# Experimental: Methods The MTS assay was employed in the evaluation of these compounds. The cells were harvested, centrifuged to remove the medium, and suspended in fresh complete medium. Samples were taken to determine cell density. The cell count was determined with a Coulter Model Z cell counter and viability was measured with propidium iodine staining call by analysis on Coulter EPICS flow cytometer. The cell line was plated at 5×10^3 cells per well in complete medium. On the following day, the cells were closed with the dilutions of the compound. The plates were analyzed on Day for after initiation of treatment.
# The cell line was propagated using standard tissue culture procedures and seeded in microtiter plates prior to dosing. Control groups included a mock treatment, media control, and a positive control (doxorubicin, 1 μM). For each concentration level, eight replicates were treated. The cell line was propagated under sterile conditions at 37° C. in 5% CO2 and 95% humidity. MT103 was stored at 4° C. until dissolved and diluted in complete medium.
# Anti-cellular effects of the compound were assessed with the MTS dye conversion assay. MTS was purchased as a single solution, and stored at −20° C. […] The absorbance of formazan in each monolayer was measured at 490 nm on a Coulter microplate reader at four hours after addition of the MTS.
# H226 cell cancer tumors = test: Induced-tumor NOD/SCID mouse model (Example 7); format: in vivo, NOD/SCID mice; details: 30 mg/kg intraperitoneal every other day for two weeks
# Experimental: (§5) A standard induced-tumor NOD/SCID mouse model was used to perform this investigation, with the mouse model being based on protocols for human xenograft systems developed at the National Cancer Institute. H226 cell cancer tumors were induced in NOD/SCID mice; tumors at sizes approximately 100 mm^3 were treated with 30 mg/kg MT103 or a control containing only vehicle (2.5% DMSO in distilled water) administered in intraperitoneal injections every other day for two weeks.
# [5] = test system: NCI-H226 squamous carcinoma; test: Induced-tumor NOD/SCID mouse model, comparison to cisplatin (Example 8); format: in vivo, NOD/SCID mice
# Experimental: as §5
# This experiment provides in vivo test data showing that the MT103 family of compounds are effective anti-cancer agents. […] MT103 was tested at three dose levels (60, 120, and 240 mg/kg). Experiments were performed as described in Example 7, NOD/SCID mice, (NOD.CB17-Prkdcscid/J) except that tumors were treated with: one of three doses of MT103 or Cisplatin or sham for 3 intraperitoneal injections (one every 4 days) in a 2-cycle 56-day test that was extended to another cycle to 86 days, as reflected in FIG. 5. Tumor volumes were measured every other day.
compound,measurement,setting,value
CC1(C)C2CC[C@@]1(CS(=O)(=O)N(C1CCCCC1)C1CCCCC1)C(O)C2 (some centres unmarked) [MT103],"Growth, Percentage",[1],0%
same,"Growth, Percentage",[2],16%
same,"Growth, Percentage",[3],14%
same,growth of all three cell lines,"MCF7, NCI-H460, SF-268",≤ 16%
same,GI50,[4],66 µM
same,toxicity,H226 cell cancer tumors,without any evidence of toxicity
same,tumor volume,H226 cell cancer tumors; FIG. 3,tumor volume was significantly decreased
same,mice body weight,H226 cell cancer tumors; FIG. 4,did not have deleterious effect on mice body weight
same,H226 tumor progression,H226 cell cancer tumors; p=0.038,slowed down H226 tumor progression significantly
same,blood counts and electrolytes,[5]; 120 mg/kg versus control,no differences in blood counts and electrolytes
same,organ appearance,[5]; 120 mg/kg versus control,no observable differences in organ appearance
same,improvement compared to cisplatin,"[5]; 120 mg/kg, among the range of doses tested",most improvement compared to cisplatin
same,mean tumor growth,"[5]; 60, 120, 240 mg/kg, 3 intraperitoneal injections (one every 4 days) per cycle, p=0.046, FIG. 5",mean tumor growth slowed
same,effect in comparison to cisplatin,"[5]; depending upon the dosages administered (60, 120, 240 mg/kg)",comparable or superior effect
